# According to patent publication US8993007B2, “Preparation used for anti-tachyarrhythmia and its preparation method” (Heshengyuan of Chinese Medicine Research & Development …, priority 2012, dated 2015):
# Values joined by “and” are separate entries in the source; they are usually repeats but may differ in a detail not shown here. Identical values can stand only once.
# How the values were obtained:
# connexin 43 [1] = assay: Western Blot test of connexin 43 in MI areas; assay type: in vivo, rats; settings: Metoprolol, Shengsong Yangxin capsule, intragastric 7 days
# Experimental: (§1) The rats were fixed the on their back on board and chloral hydrate (3.5%, 10 mg/kg) intraperitoneally administered. Between the rib 4 and 5 on the left side, an open was cut into pleural cavity and the pericardium was torn open, then the heart was extruded by light pressure to the thorax. Two mm beneath left auricle, a ligation was done on left anterior descending artery with surgical suture (USP 0) and the heart was put back to the thorax. The cut open was closed and stitched. Penicillin (up to 80,000 unit) was used for the incision to protect again infection.
# Eighty-four rats' models were randomly assigned to 6 groups, 14 for each. They were the model group, the Metoprolol group, the Shengsong Yangxin capsule group, the large-dose extract group, the moderate-dose extract group, the small-dose extract group. Two more groups added were the control group of 13 rats and sham operation group of 13 rats. Some rats were dead the next day before intragastrical administration: 1 in the sham operation group, model group, Metoprolol group, Shengsong Yangxin capsule group, large-dose extract group and moderate-dose extract group respectively and 2 in the small-dose extract group.
# 1.2.3 Medicines Doses and Preparation. See Section 1.2.3 in the Experiment Example 1. […]
# Na^+—K^+-ATPase = assay: Na+-K+-ATPase concentration in cardiac tissue homogenate of MI rats (assay kit); assay type: in vivo; settings: Metoprolol, Shengsong Yangxin capsule (doses per b188: 2.25 mg/kg, 0.432 g/kg), intragastric 7 days
# Experimental: as §1, with “fixed” for “fixed the”, “(10” for “(3.5%, 10”, “beneath the” for “beneath”
# (§2) Forty-two rats models were randomly assigned to 6 groups, 7 for each. They were the model group, the Metoprolol group, the Shengsong Yangxin capsule group, the large-dose extract group, the moderate-dose extract group, the small-dose extract group. Added were a control group of 6 rats and sham operation group of 6 rats. Totally there were 8 groups.
# (§3) 1.2.3 Medicines Doses and Preparation. See Section 1.2.3 in the Experiment Example 1.
# (§4) Starting from the next day after model establishment, the medicines were all administered intragastrically to the relevant groups accordingly, while the model group and sham operation group were given normal saline. The treatment course lasted for 7 days. […]
# [2] = tested on: phospho-connexin 43 (ser 368); assay: Immunohistochemical expression of phospho-connexin 43 in left ventricle; assay type: in vivo, rats; settings: immunohistochemistry; Metoprolol, Shengsong Yangxin capsule; intragastric 7 days
# Experimental: (§5) Two primary antibodies were used in immunohistochemical test. The connexin 43 rabbit ploy-colonal antibody was supplied by CST, USA, Batch No. 08/2011 and phospho-connexin 43 (ser 368) rabbit ploy-colonal antibody was supplied by Santa Cruz, USA, Batch no. G2011. SP 2-step reagent kit for secondary antibody was supplied by Beijing Zhongshan Goldenspace Biotechnology Co. Ltd., Batch no. K116812C. Anhydrous ethyl alcohol was supplied by Beijing Chemical Works, 2500 ml/bottle, Batch no. 20110808.95% ethanol was supplied by Beijing Chemical Works, 2500 ml/bottle, Batch no. 20110808. Formalin solution was supplied by Xilong Chemical Corporation, 500 ml/bottle, Batch no. 1110082. Xylene solution was supplied by Beijing Chemical Works, 500 ml/bottle, Batch no. 20110808. Paraffin section (54-56° C.) was supplied by Beijing Beihuakangtai Reagents Co. Ltd., Batch no. 20110428. DAB reagent kit was supplied by Beijing ComWin Biotech Co. Ltd., Batch no. 03911H. Polylysine, strength 25 mg, was supplied by Shanghai Sigma-aldrich Trading Co. Ltd., Batch no. P1399. Microscopic cover glass (24×24 mm) and slide glass (model 7105) were supplied by Beijing Chuanganghuaxin Experimental Instrument Co. Ltd. Stainless steel pressure port, microwave oven, thermostatic waterbath, immunohistochemistry kit, antigen retrieval kit, and microscope. […]
# Ca^2+-ATPase = assay: Ca2+-ATPase concentration in cardiac tissue homogenate of MI rats (assay kit); assay type: in vivo; settings: Metoprolol, Shengsong Yangxin capsule (doses per b188: 2.25 mg/kg, 0.432 g/kg), intragastric 7 days
# Experimental: as §1, with “fixed” for “fixed the”, “(10” for “(3.5%, 10”, “beneath the” for “beneath”
# as §2, §3, §4
# Wistar male rats = assay: MI areas after ligation of left anterior descending artery; assay type: in vivo; settings: Metoprolol 2.25 mg/kg, Shengsong Yangxin capsule 0.432 g/kg; intragastric 7 days
# Experimental: as §1, with “fixed” for “fixed the”, “(10” for “(3.5%, 10”
# Sixty-six rats models were randomly assigned to 6 groups, 11 for each. They were the model group, the Metoprolol group, the Shengsong Yangxin capsule group, the large-dose extract group, the moderate-dose extract group and the small-dose extract group.
# 1) The Metoprolol group. Due to the administration of β receptor inhibitor after myocardial infarction (MI), Metoprolol was administered initially at small dose of 12.5 mg, bid, that is, the dosage was 25×0.018×5=2.25 mg/kg. Metoprolol 67.5 mg was accurately weighed and evenly dissolved with 300 ml normal saline (0.9%). […]
# The hearts of the rats were harvested 2 hours after the last treatments were administered and the residues of blood in the heart chambers were washed with normal saline. […] Armed with the MPIDS-500, two technicians measured the MI areas on both sides of the slices. […]
# connexin 43 [3] = assay: Immunohistochemical expression of connexin 43 in left ventricle; assay type: in vivo, rats; settings: immunohistochemistry; Metoprolol, Shengsong Yangxin capsule; intragastric 7 days
# Experimental: as §5
# CD mice = assay: CaCl2-induced arrhythmia, efficacy screening test; assay type: in vivo; settings: CaCl2 tail vein 45 min after duodenal administration, amiodarone 78 mg/kg, NO.1 18.2, NO.2 157.6, NO.3 9.1, NO.4 462, NO.5 139, NO.6 1.16 mg/kg, NO.7 1.3 g/kg; for Duration (of arrhythmia), single animals: animals 1-10; for Duration (of arrhythmia), Mean: mean of 10 animals
# Experimental: 90 CD mice, male, weighing 28-30 g, Beijing Vital River Laboratory Animal Technology Co., license number Sea (Beijing) 2006-0009. […] Before administration each drug was prepared to the desired concentration with physiological saline, duodenal route of administration, the dose of 10 mL/kg. […] Observed ECG whether induced arrhythmia, recorded the duration of ventricular arrhythmia; and the results were statistically analyzed.
Structure (SMILES),Gray degree of Connexin 43 (connexin 43 [1]),Concentrations of Na^+-k^+-ATPase (Na^+—K^+-ATPase),IOD values of phospho-connexin 43 [2],expression Area of phospho-connexin 43 [2],The concentrations of Ca^2+-ATPase (Ca^2+-ATPase),MI area/total area of ventricular chamber (%) (Wistar male rats),IOD of connexin 43 (connexin 43 [3]),expression Area of connexin 43 (connexin 43 [3]),"Duration (of arrhythmia), single animals (CD mice)","Duration (of arrhythmia), Mean (CD mice) [s]"
COCCc1ccc(OCC(O)CNC(C)C)cc1 (stereo not drawn) [Metoprolol],0.5443 ± 0.1523**ΔΔ,10.1177 ± 0.167**ΔΔ U/ml,2686.5321 ± 1725**ΔΔ,13283.8000 ± 8070**ΔΔ,17.5339 ± 0.2439**ΔΔ U/ml,19.0847 ± 2.819,4535.0243 ± 1743**ΔΔ,17723.1800 ± 6672**ΔΔ,–,–
"COc1cc2c(cc1OC)[C@@H]1Cc3ccc(OC)c(OC)c3CN1CC2 [Sample6, Tetrahydropalmatine]",–,–,–,–,–,–,–,–,70 s (2×) and 79 s (2×) and 100 s and 47 s and 181 s and 104 s and 130 s and 80 s,94.0
CCCCc1oc2ccccc2c1C(=O)c1cc(I)c(OCCN(CC)CC)c(I)c1 [amiodarone],–,–,–,–,–,–,–,–,60 s and 106 s and 76 s and 53 s and 104 s and 99 s and 0 s and 86 s and 88 s and 120 s,79.2
